Source: patent publication US11596632B2, “JAK1 pathway inhibitors for the treatment of gastrointestinal disease” (Incyte Corporation, priority 2018, dated 2023)
Where two headings read alike, the source gives them in different places.

Columns and labels:
JAK2 (a.a. 828-1132) = JAK2 (a.a. 828-1132) (Homo sapiens (Human), UniProt O60674); test: In vitro JAK kinase assay (HTRF), JAK2 relative to JAK1; type: biochemical; conditions: IC50 ratio, 1 mM ATP
Description: The catalytic activity of JAK1, JAK2 or JAK3 was assayed by measuring the phosphorylation of a biotinylated peptide. The phosphorylated peptide was detected by homogenous time resolved fluorescence (HTRF). […] Reactions are carried out at room temperature for 1 hour and then stopped with 20 μL 45 mM EDTA, 300 nM SA-APC, 6 nM Eu-Py20 in assay buffer (Perkin Elmer, Boston, Mass.). Binding to the Europium labeled antibody takes place for 40 minutes and HTRF signal was measured on a Fusion plate reader (Perkin Elmer, Boston, Mass.).

[1] = system: IL-6 stimulated phosphorylated STAT3 in whole blood; test: IL-6 stimulated STAT3 phosphorylation in whole blood; type: cell-based; conditions: Homo sapiens, IL-6 stimulated pSTAT3, read-out: ex vivo whole blood IC50
Description: To assess the inhibitory activity of Compound 1 in serum-rich media, e.g., plasma or whole blood, the assay is conducted using whole blood; briefly, the whole blood sample is stimulated with IL-6 and levels of phosphorylated STAT3 are determined. This assay can be conducted either in vitro (human blood samples are spiked with Compound 1) or ex vivo (whole blood samples collected from human subjects dosed with Compound 1).

[2] = Plasma pharmacokinetics after single oral sustained release dose; type: in vivo, human
Description: The method used for analyzing Compound 1 in human plasma has been validated. Briefly, 50 μL of human plasma sample is placed in a 96-well plate. After an aliquot of 50 μL of internal standard (dissolved in 50:50 acetonitrile:water) is added, an aliquot of 100 μL of 0.1 M NaHCO3 is added. Then 800 μL of methyl-t-butyl ether (MtBE) is added and the samples are covered and vortexed. After centrifugation, 700 μL of MtBE layer is transferred to a clean 96-well plate. The samples are then dried under nitrogen at approximately 50° C. An aliquot of 250 μL of reconstitution solution (acetonitrile:water, 50:50, v/v) is then added to each sample. The plate is placed in the autosampler tray and injected into an LC-MS/MS for analysis. The LC-MS/MS analysis is carried out with an AB Sciex 4000 or a Sciex 6500 QTRAP mass spectrometer coupled with an HPLC pump and an autosampler. The chromatographic separation is achieved on a Waters T3 (50 mm×2.1 mm) HPLC column, with isocratic elution. The mass spectrometer is operated in positive ESI mode. The multiple reaction monitoring (MRM) transition is m/z 554.1→186.0 for Compound 1 and m/z 558.1→190.0 for the internal standard. Peak-area integrations are performed using the Analyst software and concentrations are calculated in Watson LIMS. Concentrations are calculated using 10 concentration levels ranging from 5 nM to 5000 nM with weighted linear regression, according to the following formula: y=ax+b(weighting factor=1/x^2) • where: x=Compound 1 concentration in nM; y=Peak-area ratio; a=Slope; and b=Intercept.
The lower limit of quantitation is 5 nM and the calibration curve ranges from 5 nM to 5000 nM for Compound 1 in human plasma.
Methods: Compound 1 concentrations in plasma and feces (colonic surrogate) were determined following a single sustained release 25 mg oral dose (see, e.g., Example B, 25 mg SR composition). Compound 1 concentrations in plasma following a single 100 mg dose were also determined in a separate study (see, e.g., Example C for measuring concentrations of Compound 1 in plasma). Ex vivo study: Colon tissue samples from healthy and UC subjects (2/group) were mounted on a vertical Ussing diffusion chamber. [^14C]Compound 1 was applied to the apical side of the chamber at 100 and 1000 nM and incubated for 1 h. Samples were collected from the donor and receiver sides for determination of Compound 1 concentration. The colonic tissue was snap frozen for quantitative autoradiography.
Standard noncompartmental pharmacokinetic methods were used to analyze Compound 1 plasma concentrations. The Cmax (maximum plasma concentration) and Tmax (time at which the maximum plasma concentration occurs) were taken directly from the observed plasma concentration data. The terminal-phase disposition rate constant (λZ) was estimated using a log-linear regression of the concentration data in the terminal disposition phase, and t1/2 was estimated as ln(2)/λZ. AUCall is defined as the area under the plasma concentration-time curve from time 0 to the last observation calculated using the linear trapezoidal rule for increasing concentrations and logarithmic trapezoidal rule for decreasing concentrations. AUC0-inf was calculated as AUC0-t+Ct/λZ, where by AUC0-t is defined as the area under the plasma concentration-time curve from time 0 to the last measureable concentration (also calculated using the linear-up/log-down trapezoidal rule) and Ct is the last measurable concentration. Cl/F is the apparent clearance and is calculated as Dose/AUC0-inf. Vz/F is the apparent volume of distribution based on the terminal phase calculated as Dose/(λZ*AUC0-inf).

[3] = system: TPO-induced STAT3 phosphorylation; test: Ex vivo TPO-induced STAT3 phosphorylation in dosed patients (marker of JAK2 inhibition); design: species or system human
Description: The systemic effects of Compound 1 have been studied in the auto-immune diseases RA and Ps. Inhibition of phosphorylation of STAT3 following stimulation with IL-6, a marker of AK1 inhibition, and TPO, a marker of JAK2 inhibition was measured in both studies. In patients with Ps doses of 100 mg QD, 200 mg QD, 200 mg BID, and 600 mg QD were studied.

[4] = single 25 mg SR oral dose, N=12

Sequence of JAK2 (a.a. 828-1132) (O60674 828-1132): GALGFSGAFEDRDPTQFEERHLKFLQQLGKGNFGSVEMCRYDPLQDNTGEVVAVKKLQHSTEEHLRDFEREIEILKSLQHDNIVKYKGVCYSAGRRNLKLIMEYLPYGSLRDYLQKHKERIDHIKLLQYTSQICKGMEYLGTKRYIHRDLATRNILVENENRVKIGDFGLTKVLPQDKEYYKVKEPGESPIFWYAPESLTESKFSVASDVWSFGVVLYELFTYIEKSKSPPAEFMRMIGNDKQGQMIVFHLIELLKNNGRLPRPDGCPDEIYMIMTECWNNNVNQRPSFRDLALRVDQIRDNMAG

## N#CCC1(n2cc(-c3ncnc4[nH]ccc34)cn2)CN(C2CCN(C(=O)c3ccnc(C(F)(F)F)c3F)CC2)C1 [Compound 1, {1-{1-[3-Fluoro-2-(trifluoromethyl)isonicotinoyl]piperidin-4-yl}-3-[4-(7H-pyrrolo[2,3-d]pyrimidin-4-yl)-1H-pyrazol-1-yl]azetidin-3-yl}acetonitrile]
JAK2 (a.a. 828-1132)
  JAK2/JAK1: >10
[1]
  IC50: 141 nM
[2]; human, plasma, 100 mg, plasma, single 100 mg dose, separate study, read-out: Cmax, mean (SD)
  Cmax: 84.4 nM
[2]; human, plasma, po, 25 mg, plasma, single 25 mg SR oral dose, N=12, read-out: AUC0-inf, Geometric Mean
  AUC(0-inf): 0.111 µM·h
[2]; human, plasma, po, 25 mg, plasma, single 25 mg SR oral dose, N=12, read-out: AUC0-inf, Mean
  AUC(0-inf): 0.117 µM·h
[2]; human, plasma, po, 25 mg, plasma, single 25 mg SR oral dose, N=12, read-out: AUCall, Geometric Mean
  AUC: 0.105 µM·h
[2]; human, plasma, po, 25 mg, plasma, single 25 mg SR oral dose, N=12, read-out: AUCall, Mean
  AUC: 0.11 µM·h
[2]; human, plasma, po, 25 mg, plasma, single 25 mg SR oral dose, N=12, read-out: Cmax, Geometric Mean
  Cmax: 17.2 nM
[2]; human, plasma, po, 25 mg, plasma, single 25 mg SR oral dose, N=12, read-out: Cmax, Mean
  Cmax: 18.9 nM
[2]; human, plasma, po, 25 mg, single 25 mg SR oral dose, N=12, read-out: Half-life or t1/2, Geometric Mean (converted)
  half-life: 9.04 h
[2]; human, plasma, po, 25 mg, single 25 mg SR oral dose, N=12, read-out: Half-life or t1/2, Mean (converted)
  half-life: 12.3 h
[2]; human, plasma, po, 25 mg, single 25 mg SR oral dose, N=12, read-out: Vz/F, Geometric Mean
  Vd/F: 5290 L
[2]; human, plasma, po, 25 mg, single 25 mg SR oral dose, N=12, read-out: Vz/F, Mean
  Vd/F: 7360 L
[2]; human, plasma, single 25 mg SR oral dose, N=12 (min 1, max 4), read-out: Tmax, median
  Tmax: 2 h
[2]; humans
  dose proportionality of PK: supralinear PK with regard to dose
[2]; in vivo, po
  oral bioavailability in humans: moderate
[2]; [4]
  Cl/F, Geometric Mean: 405 L/h
  Cl/F, Mean: 424 L/h
[3]; RA patients, 100 mg QD to 600 mg QD, Cycle 1 Day 15
  TPO induced pSTAT3 inhibition: general trend of increasing TPO induced pSTAT3 inhibition
[3]; psoriasis patients, 100 mg QD, 200 mg QD, and 200 mg BID
  inhibition of pSTAT3 in response to TPO: no significant inhibition of pSTAT3
